For one assay, the target named is T1, C-RAF (Homo sapiens, UniProt P04049, Y340E/Y341E).
T1 construct: His tag (implied by nickel chromatography) (cleaved yes); StrepII tag (cleaved yes); made in house; host or cells: Sf9 insect cells (baculovirus), CRAF and h14-3-3 zeta co-expressed; MEK1 substrate from E. coli
Put plainly: In vitro Raf activity determination (Alpha Screen, biotinylated kinase-dead MEK1 substrate), C-Raf. It is filed as biochemical. To be noted: c-Raf approximately 4 nM; ATP 1 μM; pre-incubation 60 minutes; reaction 1 hour at room temperature. The essentials:
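AlphaScreen read-out of MEK phosphorylation using an anti-phospho-MEK1/2 antibody after a 1 hour room-temperature reaction at 1 μM ATP. Enzyme: approximately 4 nM Sf9-expressed full-length activated C-Raf (Y340E/Y341E, with 14-3-3ζ) on approximately 10 nM biotinylated K97R MEK1, after 60 min compound preincubation. IC50 by non-linear fit.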

The target of another assay is T2, b-Raf (V600E) (Homo sapiens, UniProt P15056, V600E).
T2 construct: made in house
Put plainly: In vitro Raf activity determination (Alpha Screen, biotinylated kinase-dead MEK1 substrate), B-Raf. It is filed as biochemical. The settings on record: b-Raf (V600E) approximately 4 pM; ATP 10 μM; pre-incubation 60 minutes; reaction 3 hours at room temperature. The essentials: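 IC50 from non-linear regression of AlphaScreen phospho-MEK signal (anti-p-MEK1/2 antibody). b-Raf(V600E), about 4 pM, phosphorylated ~10 nM biotinylated K97R MEK1 with 10 μM ATP for 3 h at room temperature after 60 min compound pre-incubation; buffer pH 7.5 Tris, 15 mM MgCl2, 1 mM DTT.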

The record followed here is patent US10392404B2, “Compounds and compositions as kinase inhibitors” (NOVARTIS AG, priority 2014, dated 2019).

In general, IC50 refers to the concentration needed to halve the response being measured. Higher therefore signals weaker potency in that assay.

T1 sequence (P04049 whole entry Y340E/Y341E): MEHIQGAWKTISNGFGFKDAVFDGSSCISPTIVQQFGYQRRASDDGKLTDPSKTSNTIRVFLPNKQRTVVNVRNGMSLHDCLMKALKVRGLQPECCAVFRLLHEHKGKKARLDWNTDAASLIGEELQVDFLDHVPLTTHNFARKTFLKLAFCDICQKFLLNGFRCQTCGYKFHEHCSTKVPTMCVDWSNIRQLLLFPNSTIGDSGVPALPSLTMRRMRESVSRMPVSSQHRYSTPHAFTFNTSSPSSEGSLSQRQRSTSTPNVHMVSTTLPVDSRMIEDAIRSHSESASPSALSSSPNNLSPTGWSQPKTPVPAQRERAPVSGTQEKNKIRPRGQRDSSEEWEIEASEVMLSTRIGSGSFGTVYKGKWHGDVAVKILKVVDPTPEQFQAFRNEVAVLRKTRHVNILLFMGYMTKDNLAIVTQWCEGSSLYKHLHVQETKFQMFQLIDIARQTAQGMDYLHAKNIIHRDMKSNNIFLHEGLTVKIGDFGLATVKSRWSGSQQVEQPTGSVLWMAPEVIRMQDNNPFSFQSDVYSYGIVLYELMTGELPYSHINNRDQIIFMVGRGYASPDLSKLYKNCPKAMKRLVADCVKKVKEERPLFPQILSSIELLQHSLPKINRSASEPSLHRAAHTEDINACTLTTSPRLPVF
T1 sequence (P63104 whole entry partner): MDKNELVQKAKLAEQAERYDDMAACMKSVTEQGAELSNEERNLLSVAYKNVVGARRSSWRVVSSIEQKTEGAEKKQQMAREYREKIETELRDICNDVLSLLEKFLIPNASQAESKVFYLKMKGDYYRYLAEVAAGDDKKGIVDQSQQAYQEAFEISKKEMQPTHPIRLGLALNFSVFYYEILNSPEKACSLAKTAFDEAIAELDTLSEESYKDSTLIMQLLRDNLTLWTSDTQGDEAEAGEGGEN
T2 sequence (P15056 whole entry V600E): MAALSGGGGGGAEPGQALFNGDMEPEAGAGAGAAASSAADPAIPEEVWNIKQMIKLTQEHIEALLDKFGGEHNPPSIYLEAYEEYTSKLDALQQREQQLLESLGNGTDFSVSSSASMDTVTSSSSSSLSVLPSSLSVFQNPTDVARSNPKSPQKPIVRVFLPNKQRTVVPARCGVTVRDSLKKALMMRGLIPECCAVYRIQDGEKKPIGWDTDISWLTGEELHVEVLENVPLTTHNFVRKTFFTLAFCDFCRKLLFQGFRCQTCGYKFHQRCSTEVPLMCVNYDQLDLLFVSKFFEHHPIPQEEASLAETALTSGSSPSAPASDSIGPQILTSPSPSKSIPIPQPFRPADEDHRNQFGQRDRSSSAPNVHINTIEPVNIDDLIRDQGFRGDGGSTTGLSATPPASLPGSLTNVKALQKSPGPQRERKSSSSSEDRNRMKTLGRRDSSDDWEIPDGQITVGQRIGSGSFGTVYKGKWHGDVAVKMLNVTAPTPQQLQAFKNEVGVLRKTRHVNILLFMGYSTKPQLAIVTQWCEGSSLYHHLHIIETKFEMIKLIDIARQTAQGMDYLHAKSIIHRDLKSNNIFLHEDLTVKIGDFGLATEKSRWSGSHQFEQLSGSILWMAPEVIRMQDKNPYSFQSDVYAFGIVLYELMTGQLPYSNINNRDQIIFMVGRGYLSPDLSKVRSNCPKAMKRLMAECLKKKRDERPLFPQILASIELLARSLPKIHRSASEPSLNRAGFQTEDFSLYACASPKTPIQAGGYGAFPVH

`Cc1ccc(NC(=O)c2cn(C(C)C)nc2C)cc1-c1cnc(N(C)C)c(C#N)c1` [Example 253, N-(3-(5-cyano-6-(dimethylamino)pyridin-3-yl)-4-methylphenyl)-1-isopropyl-3-methyl-1H-pyrazole-4-carboxamide]: the IC50 is 2.5 nM on C-RAF and 16.5 nM against b-Raf (V600E).

Take `COCCNc1ncc(-c2cc(NC(=O)c3ccnc(C(C)(C)C#N)c3)ccc2C)cc1C#N` [Example 176, N-(3-(5-cyano-6-((2-methoxyethyl)amino)pyridin-3-yl)-4-methylphenyl)-2-(2-cyanopropan-2-yl)isonicotinamide]: the concentration for half-maximal inhibition (IC50) on C-RAF stood at 0.398 nM; on b-Raf (V600E), 1.58 nM.

For `Cc1ccc(NC(=O)c2ccnc(C(F)F)c2)cc1-c1cnc(N2CC(C)(O)C2)c(C#N)c1` [Example 216, N-(3-(5-cyano-6-(3-hydroxy-3-methylazetidin-1-yl)pyridin-3-yl)-4-methylphenyl)-2-(difluoromethyl) isonicotinamide], the 50% inhibitory concentration (IC50) against C-RAF was determined as 0.691 nM; against b-Raf (V600E), 4.73 nM.

With `Cc1ncc(NC(=O)c2ccnc(C(C)(C)C#N)c2)cc1-c1cnc(N2CCOC(C)(C)C2)c(C#N)c1` [Example 89, N-(5′-cyano-6′-(2,2-dimethylmorpholino)-2-methyl-[3,3′-bipyridin]-5-yl)-2-(2-cyanopropan-2-yl)isonicotinamide], the IC50 at C-RAF was found to be 1.02 nM; against b-Raf (V600E), 3.42 nM.

With `Cc1ncc(NC(=O)c2ccnc(C(F)(F)F)c2)cc1-c1cnc(S(C)(=O)=O)c(C#N)c1` [Example 45, N-(5′-cyano-2-methyl-6′-(methylsulfonyl)-[3,3′-bipyridin]-5-yl)-2-(trifluoromethyl) isonicotinamide], the results for the half-inhibitory concentration (IC50) against C-RAF and at b-Raf (V600E) were 1.13 nM and 5.95 nM, respectively.

Consider `Cc1ncc(NC(=O)c2ccnc(C(C)(C)C#N)c2)cc1-c1cnc(-c2ccn(C)n2)c(C#N)c1` [Example 109, N-(5′-cyano-2-methyl-6′-(1-methyl-1H-pyrazol-3-yl)-[3,3′-bipyridin]-5-yl)-2-(2-cyanopropan-2-yl)isonicotinamide], for which the values for the 50% inhibitory concentration (IC50) against C-RAF and at b-Raf (V600E) were 2.74 nM and 20 nM, respectively.

Take `CCn1cc(C(=O)Nc2ccc(C)c(-c3cnc(N(C)C)c(C#N)c3)c2)cc(C(F)(F)F)c1=O` [Example 250, N-(3-(5-cyano-6-(dimethylamino)pyridin-3-yl)-4-methylphenyl)-1-ethyl-6-oxo-5-(trifluoromethyl)-1,6-dihydropyridine-3-carboxamide]: the half-inhibitory concentration (IC50) at C-RAF amounted to 0.401 nM; on b-Raf (V600E), 1.96 nM.

As to `Cc1ncc(NC(=O)c2ccnc(C(C)(C)C#N)c2)cc1-c1cnc(N2CCNCC2)c(C#N)c1` [Example 71, N-(5′-cyano-2-methyl-6′-(piperazin-1-yl)-[3,3′-bipyridin]-5-yl)-2-(2-cyanopropan-2-yl)isonicotinamide], the IC50 against C-RAF is 1.97 nM; on b-Raf (V600E), 4.03 nM.

Regarding `Cc1ncc(NC(=O)c2cnnc(C(F)(F)F)c2)cc1-c1cnc(N2CCOCC2)c(C#N)c1` [Example 142, N-(5′-cyano-2-methyl-6′-morpholino-[3,3′-bipyridin]-5-yl)-6-(trifluoromethyl) pyridazine-4-carboxamide], the IC50 was 0.344 nM against C-RAF and 2.79 nM on b-Raf (V600E).

Turning to `CCC(F)(F)c1cc(C(=O)Nc2cnc(C)c(-c3cnc(N4CC(C)(O)C4)c(C#N)c3)c2)ccn1` [Example 192, N-(5′-cyano-6′-(3-hydroxy-3-methylazetidin-1-yl)-2-methyl-[3,3′-bipyridin]-5-yl)-2-(1,1-difluoropropyl) isonicotinamide], the IC50 against C-RAF is 1.15 nM; against b-Raf (V600E), 5.13 nM.

On to `Cc1ncc(NC(=O)c2cccc(C(F)F)c2)cc1-c1cnc(N2CCOCC2)c(C#N)c1` [Example 132, N-(5′-cyano-2-methyl-6′-morpholino-[3,3′-bipyridin]-5-yl)-3-(difluoromethyl) benzamide], for which the results for the IC50 against C-RAF and at b-Raf (V600E) were 0.117 nM and 0.542 nM, respectively.

In the case of `Cc1ncc(NC(=O)c2cnnc(C(C)(C)C#N)c2)cc1-c1cnc(NC2CCOCC2)c(C#N)c1` [Example 205, N-(5′-cyano-2-methyl-6′-((tetrahydro-2H-pyran-4-yl)amino)-[3,3′-bipyridin]-5-yl)-6-(2-cyanopropan-2-yl)pyridazine-4-carboxamide], the IC50 at C-RAF is 1.82 nM; on b-Raf (V600E), 10.9 nM.

For the molecule `Cc1ncc(NC(=O)c2ccnc(C(C)(C)C#N)c2)cc1-c1cnc(-c2ccnnc2)c(C#N)c1` [Example 115], the IC50 was determined as 11.5 nM against C-RAF and 70.6 nM on b-Raf (V600E).

With `Cc1ccc(NC(=O)c2ccnc(C(C)C)c2)cc1-c1cnc(N2CCNCC2)c(C#N)c1` [Example 150, N-(3-(5-cyano-6-(piperazin-1-yl)pyridin-3-yl)-4-methylphenyl)-2-isopropyl-isonicotinamide], the concentration for half-maximal inhibition (IC50) against C-RAF was determined as 0.158 nM; at b-Raf (V600E), 0.591 nM.

For the molecule `Cc1ccc(C(=O)Nc2cccc(C(F)(F)F)c2)cc1-c1cncc(C#N)c1` [Example 27, 3-(5-cyanopyridin-3-yl)-4-methyl-N-(3-(trifluoromethyl)phenyl)benzamide], the values for the half-maximal inhibitory concentration (IC50) on C-RAF and against b-Raf (V600E) were 1.65 nM and 21.1 nM, respectively.

Turning to `Cc1ccc(NC(=O)c2cn(C)nc2C)cc1-c1cnc(N(C)C)c(C#N)c1` [Example 252, N-(3-(5-cyano-6-(dimethylamino)pyridin-3-yl)-4-methylphenyl)-1,3-dimethyl-1H-pyrazole-4-carboxamide], the half-maximal inhibitory concentration (IC50) turned out to be 17.6 nM at C-RAF and 196 nM against b-Raf (V600E).

Consider `Cc1ccc(NC(=O)c2cccc(C(F)(F)F)c2)cc1-c1cnc(-c2cnn(C)c2)c(C#N)c1` [Example 123, N-(3-(5-cyano-6-(1-methyl-1H-pyrazol-4-yl)pyridin-3-yl)-4-methylphenyl)-3-(trifluoromethyl) benzamide], for which the values for the IC50 on C-RAF and against b-Raf (V600E) were 0.15 nM and 1.18 nM, respectively.

Take `Cc1ncc(NC(=O)c2ccnc(C(C)(C)C#N)c2)cc1-c1cnc(NC2COC2)c(C#N)c1` [Example 80, N-(5′-cyano-2-methyl-6′-(oxetan-3-ylamino)-[3,3′-bipyridin]-5-yl)-2-(2-cyanopropan-2-yl)isonicotinamide]: the half-inhibitory concentration (IC50) came to 1.93 nM on C-RAF and 12.6 nM against b-Raf (V600E).

Take `Cc1ccc(NC(=O)c2cc(C(C)(C)N)cc(C(F)(F)F)c2)cc1-c1cnc(-c2cnn(C)c2)c(C#N)c1` [Example 273, 3-(2-aminopropan-2-yl)-N-(3-(5-cyano-6-(1-methyl-1H-pyrazol-4-yl)pyridin-3-yl)-4-methylphenyl)-5-(trifluoromethyl) benzamide]: the figures for the half-maximal inhibitory concentration (IC50) against C-RAF and against b-Raf (V600E) were 1 nM and 4 nM, respectively.

For `Cc1ccc(NC(=O)c2ccnc(C(F)(F)F)c2)cc1-c1cnc(N2CCNCC2)c(C#N)c1` [Example 153, N-(3-(5-cyano-6-(piperazin-1-yl)pyridin-3-yl)-4-methylphenyl)-2-(trifluoromethyl) isonicotinamide], the IC50 on C-RAF is 0.15 nM; on b-Raf (V600E), 0.7 nM.

Take `Cc1ccc(NC(=O)c2cc(C(C)(C)O)ccn2)cc1-c1cnc(N2CC(C)(O)C2)c(C#N)c1` [Example 236, N-(3-(5-cyano-6-(3-hydroxy-3-methylazetidin-1-yl)pyridin-3-yl)-4-methylphenyl)-4-(2-hydroxypropan-2-yl)picolinamide]: the results for the IC50 against C-RAF and against b-Raf (V600E) were 1.55 nM and 5.78 nM, respectively.

As to `Cc1ncc(NC(=O)c2cc(C3CC3)nn2C)cc1-c1cnc(N(C)C)c(C#N)c1` [Example 266, N-(5′-cyano-6′-(dimethylamino)-2-methyl-[3,3′-bipyridin]-5-yl)-3-cyclopropyl-1-methyl-1H-pyrazole-5-carboxamide], the values for the IC50 against C-RAF and on b-Raf (V600E) were 30.8 nM and 404 nM, respectively.

For the molecule `Cc1ncc(NC(=O)c2cccc(C(F)(F)F)c2)cc1-c1cnc(N2CCS(=O)(=O)CC2)c(C#N)c1` [Example 85, N-(5′-cyano-6′-(1,1-dioxidothiomorpho-lino)-2-methyl-[3,3′-bipyridin]-5-yl)-3-(trifluoromethyl) benzamide], the figures for the concentration for half-maximal inhibition (IC50) on C-RAF and at b-Raf (V600E) were 0.227 nM and 1.33 nM, respectively.

`Cc1ccc(NC(=O)c2ccnc(C(C)(C)C#N)c2)cc1-c1cnc(N)c(C#N)c1C` [Example 9, N-(3-(6-amino-5-cyano-4-methylpyridin-3-yl)-4-methylphenyl)-2-(2-cyanopropan-2-yl)isonicotinamide]: the concentration for half-maximal inhibition (IC50) at C-RAF worked out at 6.55 nM; on b-Raf (V600E) it was 60.8 nM.

In the case of `Cc1ccc(NC(=O)c2cccc(C(F)(F)F)c2)cc1-c1cnc(-n2ccc(=O)cc2)c(C#N)c1` [Example 118, N-(3-(3′-cyano-4-oxo-4H-[1,2′-bipyridin]-5′-yl)-4-methylphenyl)-3-(trifluoromethyl) benzamide], the IC50 against C-RAF was found to be 0.768 nM; against b-Raf (V600E) it was 5.57 nM.

Consider `Cc1ccc(NC(=O)c2cnnc(C(C)(C)C#N)c2)cc1-c1cnc(N2CCOCC2)c(C#N)c1` [Example 206, N-(3-(5-cyano-6-morpholinopyridin-3-yl)-4-methylphenyl) 6-(2-cyanopropan-2 yl)pyridazine-4-carboxamide], for which the IC50 against C-RAF came to 0.199 nM; at b-Raf (V600E), 1.23 nM.

Regarding `Cc1ncc(NC(=O)c2ccnc(C3CC3)c2)cc1-c1cnc(N2CCOCC2)c(C#N)c1` [Example 134, N-(5′-cyano-2-methyl-6′-morpholino-[3,3′-bipyridin]-5-yl)-2-cyclopropyl-isonicotinamide], the IC50 against C-RAF was 0.236 nM; against b-Raf (V600E), 1.46 nM.
